55 compounds from patent US20260097047A1, “Small molecule inhibitors of the ribosome biogenesis factor NVL2” (Board of Regents, The University of Texas System, priority 2023, published 2026) can be followed below.

Like-named read-outs stand apart in the source and are kept apart here.

The subject of this assay is HCT116 cells. Kind of assay: Cell viability assay (CellTiter-Glo, 72 hours) in HCT116 human colorectal cancer cells. The format is cell-based. The essentials: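 2,000 cells/well adhered overnight, then compound added by digital dispenser with DMSO normalized to 0.5%. Viability read after 72 h at 37 °C by ATP-based CellTiter-Glo luminescence. IC50 from ten-point curves baseline-corrected to vehicle, five-parameter asymmetric least-squares fit.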
For orientation: Cellular ATP, detected with luciferase, serves as a proxy for viable cell number.

Where [1] appears, read: Homo sapiens, HCT-116, Table 5, HCT116, 72 hours, read-out: Activity.
Setting [2] is: Table 7, cell viability assay, CellTiter-Glo, 72 hours, scaffold drawing 42 with R^2, R^3, X/Y, Z, read-out: Activity.
The mark [3] stands for this setting: Table 8, analogs of scaffold drawing 43 defined by R^2, R^3, X/Y, W, read-out: Activity (IC50 class, cell viability assay).
[4] abbreviates: Table 6, HCT116, 72 hours, read-out: Activity.
Setting [5] is: Table 9, HCT116, 72 hours, read-out: Activity.
[6] abbreviates: Table 5, HCT116, 72 hours, read-out: Activity.

`CCC/C=C/CN1C(=O)c2ccccc2Sc2cc(Nc3ncccc3OC)ccc21` [(E)-10-(Hex-2-en-1-yl)-7-((3-methoxypyridin-2-yl)amino)dibenzo[b,f][1,4]thiazepin-11 (10H)-one]: the IC50 under setting [1] was 500 to 1000 nM. As for `O=C(Nc1ccc2c(c1)Sc1ccccc1C(=O)N2CCO)c1ccoc1` [—(CH2)2OH; furan-3-yl; CH/CH; S], the IC50 under setting [2] is 1000 to 5000 nM.

For `COC12CC(C(=O)Nc3cnc4c(c3)Sc3ccccc3C(=O)N4CC#CC(F)(F)F)(C1)C2`, under setting [3], the IC50 is less than 500 nM. Regarding `COCCN1C(=O)c2ccccc2Sc2cc(NC(=O)c3cocn3)ccc21` [—(CH2)2OMe; oxazol-4-yl; CH/CH; S], the IC50 under setting [2] was in the range of 1000 to 5000 nM.

As for `CC#CCN1C(=O)c2ccccc2Cc2cc(NC3CC4(CC(O)C4)C3)ccc21` (stereo not shown), the IC50 under setting [4] is less than 500 nM. Regarding `CC#CCN1C(=O)c2ccccc2Sc2cc(NC(=O)C3CCN(C)C3)ccc21` (stereo not shown), under setting [3], the IC50 was 1000 to 5000 nM. On to `CC#CCN1C(=O)c2ccccc2C(C)c2cc(NC(=O)[C@H]3C[C@H](O)C3)ccc21` (stereo partly drawn) [Table 9: —CH2CCMe; trans-3-OH-cBu; CHMe], for which the IC50 under setting [5] is less than 500 nM. Same read-out and setting: as for `CC#CCN1C(=O)c2ccccc2Cc2cc(NC(=O)C34CC(OC)(C3)C4)ccc21`, the figure is less than 500 nM. For `COc1ccc(C(=O)Nc2ccc3c(c2)Sc2ccccc2C(=O)N3CC#CC(F)(F)F)cc1` [—CH2CCCF3; 4-MeOPh; CH/CH; CH], under setting [3], the IC50 was less than 500 nM. As to `CC#CCN1C(=O)c2ccccc2Cc2cc(NC3CC(COC)C3)ccc21` (stereo not shown), under setting [4], the IC50 is less than 500 nM. For the compound `CC#CCN1C(=O)c2ccccc2Sc2cc(Nc3ncc(C#N)cc3C)cnc21`, the IC50 under setting [6] was less than 500 nM. Regarding `CC#CCN1C(=O)c2ccc(F)cc2Sc2cc(Nc3ncccc3C#N)ccc21` [2-((10-(But-2-yn-1-yl)-3-fluoro-11-oxo-10,11-dihydrodibenzo[b,f][1,4]thiazepin-7-yl)amino) nicotinonitrile], under setting [1], the IC50 was less than 500 nM. Still for that read-out and setting: the result for `CCC/C=C/CN1C(=O)c2ccccc2Sc2cc(Nc3ncccc3C#N)ccc21` [(E)-2-((10-(Hex-2-en-1-yl)-11-oxo-10,11-dihydrodibenzo[b,f][1,4]thiazepin-7-yl)amino) nicotinonitrile] reads less than 500 nM. As for `CC#CCN1C(=O)c2ccccc2Sc2cc(NC(=O)CCCO)ccc21` [—CH2CCMe; (CH2)3OH; CH/CH; CH], the IC50 under setting [3] is less than 500 nM. Same read-out and setting: the result for `CC#CCN1C(=O)c2ccc(Cl)cc2Sc2cc(NC(=O)C3CC4(CC(O)C4)C3)ccc21` (stereo not shown) reads less than 500 nM.

As to `CC#CCN1C(=O)c2ccccc2Sc2cc(Nc3ncccc3C)cnc21`, under setting [6], the IC50 was less than 500 nM. Consider `CC#CCN1C(=O)c2ccccc2Sc2cc(Nc3ccncc3C#N)ccc21` [4-((10-(But-2-yn-1-yl)-11-oxo-10,11-dihydrodibenzo[b,f][1,4]thiazepin-7-yl)amino) nicotinonitrile], for which the IC50 under setting [1] was less than 500 nM.

For `CC#CCN1C(=O)c2ccccc2Sc2cc(NC34CC(OC)(C3)C4)cnc21`, the IC50 under setting [4] is less than 500 nM.

`O=C(Nc1ccc2c(c1)Sc1cc(Cl)ccc1C(=O)N2CC#CCl)C1CC2(CC(=NO)C2)C1` (stereo not shown): the IC50 under setting [3] is less than 500 nM. Consider `CC#CCN1C(=O)c2ccc(F)cc2Sc2cc(Nc3ncccc3C)ccc21` [10-(But-2-yn-1-yl)-3-fluoro-7-((3-methylpyridin-2-yl)amino)dibenzo[b,f][1,4]thiazepin-11 (10H)-one], for which, under setting [1], the IC50 is less than 500 nM.

In the case of `CC#CCN1C(=O)c2ccccc2Sc2cc(NC34CC(OC)(C3)C4)ccc21`, the IC50 under setting [4] is less than 500 nM. As for `CC#CCN1C(=O)c2cc(F)ccc2Sc2cc(NC(=O)[C@H]3C[C@@H](OC)C3)cnc21` [—CH2CCMe; cis-3-MeOcBu; CH/CF; N], the IC50 under setting [3] was less than 500 nM. As for `CC#CCN1C(=O)c2ccccc2Sc2cc(Nc3nccc(C#N)c3C)ccc21` [2-((10-(But-2-yn-1-yl)-11-oxo-10,11-dihydrodibenzo[b,f][1,4]thiazepin-7-yl)amino)-3-methylisonicotinonitrile], the IC50 under setting [1] is less than 500 nM. Take `CO[C@H]1C[C@@H](C(=O)Nc2ccc3c(c2)C(C#N)c2ccccc2C(=O)N3CC#CC2CC2)C1` (stereo partly drawn) [Table 9: —CH2CCºPr; cis-3-MeOcBu; CHCN]: the IC50 under setting [5] is less than 500 nM. Take `Cc1ccnnc1Nc1cnc2c(c1)Sc1ccccc1C(=O)N2CC#CCl`: under setting [6], the IC50 was less than 500 nM.

For `COCCN1C(=O)c2ccccc2Sc2cc(NC(=O)c3ccoc3C)ccc21` [—(CH2)2OMe; 2-Me-furan-3-yl; CH/CH; S], the IC50 under setting [2] lay in the range of 500 to 1000 nM. The same measure, in the same setting: the result for `CNC(=O)c1cccc(C(=O)Nc2ccc3c(c2)Sc2ccccc2C(=O)N3CCOC)c1` [—(CH2)2OMe; 3-MeNHC(O)Ph; CH/CH; S] reads 1000 to 5000 nM.

In the case of `CC#CCN1C(=O)c2ccc(Cl)cc2Sc2cc(NC(=O)[C@H]3C[C@@H](O)C3)ccc21` [—CH2CCMe; cis-3-OH-cBu; CCI/CH; CH], the IC50 under setting [3] was less than 500 nM. For `CC#CCN1C(=O)c2ccccc2Cc2cc(Nc3ncccc3F)ccc21` [5-(But-2-yn-1-yl)-2-((3-fluoropyridin-2-yl)amino)-5H-dibenzo[b,e]azepin-6 (11H)-one], the IC50 under setting [1] is less than 500 nM. On to `CO[C@H]1C[C@@H](C(=O)Nc2ccc3c(c2)C(C)(O)c2ccccc2C(=O)N3CC#CC2CC2)C1` (stereo partly drawn) [Table 9: —CH2CCcPr; cis-3-MeOcBu; CMeOH], for which, under setting [5], the IC50 was less than 500 nM.

For `CC#CCN1C(=O)c2ccccc2Sc2cc(NC(=S)N3CCC3)ccc21` [Table 2: —CH2CCMe; azetidin-1-yl; CH; CH], for the setting “Table 2, HCT116, 72 hours, read-out: Activity”, the IC50 was less than 500 nM. As for `CC#CCN1C(=O)c2ccc(F)cc2Sc2cc(NC(=O)c3cccc(OC)c3)ccc21` [—CH2CCMe; 3-MeOPh; CF/CH; CH], under setting [3], the IC50 is less than 500 nM. `CC#CCN1C(=O)c2ccccc2Sc2cc(Nc3nccc(-c4cccnc4)n3)ccc21` [10-(But-2-yn-1-yl)-7-((4-(pyridin-3-yl)pyrimidin-2-yl)amino)dibenzo[b,f][1,4]thiazepin-11 (10H)-one]: the IC50 under setting [1] is less than 500 nM.

For the compound `CC#CCN1C(=O)c2cc(F)ccc2Sc2cc(NC(=O)C3CC4(CC(=O)C4)C3)ccc21`, the IC50 under setting [3] is less than 500 nM. For `CCCC=CCN1C(=O)c2ccccc2Sc2cc(NC(=O)c3ccoc3)ccc21` [—CH2CH═CHPr; furan-3-yl; CH/CH; S], the IC50 under setting [2] is less than 500 nM. On to `CCC/C=C/CN1C(=O)c2ccccc2Sc2cc(Nc3cc(C)ccn3)ccc21` [(E)-10-(Hex-2-en-1-yl)-7-((4-methylpyridin-2-yl)amino)dibenzo[b,f][1,4]thiazepin-11 (10H)-one], for which the IC50 under setting [1] lay within 500 to 1000 nM. Regarding `CCCOc1ccc(C(=O)Nc2ccc3c(c2)Sc2ccccc2C(=O)N3CCOC)cc1` [—(CH2)2OMe; 4-PrOPh; CH/CH; S], under setting [2], the IC50 was 1000 to 5000 nM. As to `CC#CCN1C(=O)c2ccc(Cl)cc2Sc2cc(NC(=O)C(C)CCOC)ccc21` (stereo not shown) [—CH2CCMe; MeO(CH2)2CHMe-; CCI/CH; CH], the IC50 under setting [3] is less than 500 nM. Turning to `CC#CCN1C(=O)c2cc(F)ccc2Sc2cc(NC(=O)C3CC4(CC(=NOC)C4)C3)ccc21` (stereo not shown), the IC50 under setting [3] is less than 500 nM. Turning to `COCCN1C(=O)c2ccccc2Sc2cc(NC(=O)c3ccc4oc(C)nc4c3)ccc21`, under setting [2], the IC50 is less than 500 nM. In the case of `CC#CCN1C(=O)c2ccccc2Sc2cc(Nc3cc(C#N)ncn3)ccc21` [6-((10-(But-2-yn-1-yl)-11-oxo-10,11-dihydrodibenzo[b,f][1,4]thiazepin-7-yl)amino)pyrimidine-4-carbonitrile], under setting [1], the IC50 was less than 500 nM.

As for `COCCN1C(=O)c2ccccc2Sc2cc(NC(=O)c3cccc(Cl)c3)ccc21` [—(CH2)2OMe; 3-ClPh; CH/CH; S], under setting [2], the IC50 is 1000 to 5000 nM. On to `CC=CCN1C(=O)c2ccccc2Sc2cc(Nc3nccnc3C)ccc21`, for which the IC50 under setting [6] was less than 500 nM.

Consider `CC#CCN1C(=O)c2ccccc2Sc2cc(NC(=O)[C@@H]3C[C@H]3C(=O)OC)ccc21` (relative stereo) [—CH2CCMe; trans-2-MeO2C-cPr; CH/CH; CH], for which, under setting [3], the IC50 was less than 500 nM. Consider `CC#CCN1C(=O)c2ccccc2Cc2cc(NCCCOC)ccc21` [Table 6: —CH2CCMe; (CH2)3OMe; CH/CH; CH2], for which, under setting [4], the IC50 was less than 500 nM. For `COCCN1C(=O)c2ccccc2Sc2cc(NC(=O)C3CCOCC3)ccc21`, the IC50 under setting [2] was in the range of 1000 to 5000 nM.

For `COCCN1C(=O)c2ccccc2Sc2cc(NC(=O)C3CC(=O)C3)ccc21` [—(CH2)2OMe; 3-oxo-cBu; CH/CH; S], the IC50 under setting [2] is 1000 to 5000 nM. With `CO[C@H]1C[C@@H](C(=O)Nc2cnc3c(c2)Sc2ccccc2C(=O)N3CC#CC2CC2)C1` [—CH2CC^cPr; cis-3-MeOcBu; CH/CH; N], the IC50 under setting [3] was less than 500 nM. On the same count and under the same terms, the result for `CO[C@H]1C[C@H](C(=O)Nc2cnc3c(c2)Sc2ccccc2C(=O)N3CC#CC(F)(F)F)C1` [—CH2CCCF3; trans-3-MeOcBu; CH/CH; N] reads less than 500 nM. As for `C#CCOCCN1C(=O)c2ccccc2Sc2cc(NC(=O)N3CCC3)ccc21` [N-(11-Oxo-10-(2-(prop-2-yn-1-yloxy)ethyl)-10,11-dihydrodibenzo[b,f][1,4]thiazepin-7-yl) azetidine-1-carboxamide], for the setting “Homo sapiens, HCT-116, Table 1, HCT116, 72 hours, read-out: Activity”, the IC50 is less than 500 nM. With `CC#CCN1C(=O)c2ccccc2Sc2cc(NC(=S)Nc3ccc(OC)nc3)ccc21` [1-(10-(But-2-yn-1-yl)-11-oxo-10,11-dihydrodibenzo[b,f][1,4]thiazepin-7-yl)-3-(6-methoxypyridin-3-yl)thiourea], the IC50 (Homo sapiens, HCT-116, Table 4, HCT116, 72 hours, read-out: Activity) was less than 500 nM. Take `CC#CCN1C(=O)c2ccccc2Sc2cc(NC(=O)c3cccc(OC)c3)ccc21` [—CH2CCMe; 3-MeOPh; CH/CH; CH]: under setting [3], the IC50 was less than 500 nM. With `CC=CCN1C(=O)c2ccccc2Sc2cc(Nc3ncccc3C)ccc21`, the IC50 under setting [6] is less than 500 nM. As to `CC#CCN1C(=O)c2ccc(F)cc2Sc2cc(Nc3ncccc3F)ccc21` [10-(But-2-yn-1-yl)-3-fluoro-7-((3-fluoropyridin-2-yl)amino)dibenzo[b,f][1,4]thiazepin-11 (10H)-one], under setting [1], the IC50 is less than 500 nM.

Regarding `O=C(Nc1ccc2c(c1)Sc1ccc(F)cc1C(=O)N2CC#CCl)C1CC2(CC(=NO)C2)C1` (stereo not shown), under setting [3], the IC50 was less than 500 nM.
